Experiment [1] addresses T1, human interleukin-1 receptor type 1 (Homo sapiens, UniProt P14778).
T1 construct: soluble human II-1 R was allowed to flow over the surface; made in house; host or cells: baculovirus-infected TN-5B1-4 insect cells (High Five)
T1 sequence (P14778 18-336 limits assumed): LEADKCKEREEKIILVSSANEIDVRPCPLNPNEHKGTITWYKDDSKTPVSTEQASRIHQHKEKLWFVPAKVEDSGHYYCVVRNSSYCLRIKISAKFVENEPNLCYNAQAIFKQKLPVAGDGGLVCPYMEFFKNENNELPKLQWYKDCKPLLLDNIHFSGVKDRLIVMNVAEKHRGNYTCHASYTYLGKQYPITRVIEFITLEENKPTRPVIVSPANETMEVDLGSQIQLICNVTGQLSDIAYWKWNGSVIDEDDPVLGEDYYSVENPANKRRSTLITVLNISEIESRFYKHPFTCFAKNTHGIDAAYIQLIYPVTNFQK
Put plainly: SPR inhibition of binding of soluble IL-1 R to an immobilized peptide ligand (Examples 12-13). The note with it: for IC50: inhibition of binding of IL-1 R to the immobilized peptide […]. Here is the method:
A CM5 sensor chip (Biacore-BR-1000-14) is docked in a Biacore 2000 SPR device. The chip is then normalized using standard Biacore protocol with 70% glycerol. The chip is next equilibrated in PBS for approximately 1 hr at 20,L/min flow rate. The dextran surface of the chip is activated through an NHS/EDC coupling. This coupling is done using an amine coupling kit (Biacore—BR-100-50) containing N-hydroxysuccinimide (NHS 11.5 mg/mL) and N-ethyl-N′-(3-dimethylaminopropyl) carbodiimide hydrochloride (EDC 75 mg/mL). The two reagents are mixed in a 1:1 ratio and 35 μL of the mixture are injected at 5 μL/min. The activated chip is then modified with a cysteine reactive group, to enable labeling of the CM5 chip with cysteine chemistry. A solution of 100 μM MTSL in PBS is injected at 2 μL/min for 10 min over the activated cell.
A peptide that is a nanomolar inhibitor for the protein of interest was synthesized at Synpep, to include a cysteine residue at the N-terminus. This peptide was brought up to a 100 μM solution in PBS. This solution is then injected over the activated cell at 2 μL/min for 10 min. After injection one measures the change in RUs by marking the RUs at t=0 and t=final and subtracting. This gives the total RU change, which is related to the total mass of peptide successfully coupled to the CM5 surface. The sensorgram is then altered to flow across all four cells on the CM5 chip at 5 μL/min PBS. A solution of 1 M ethanolamine hydrochloride-NaOH pH 8.5 (Amine coupling kit, Biacore—BR-100-50) is injected at […] for 7 min. The peptide is immobilized at a density of 40 fmol/mm^2. The chip is equilibrated overnight in PBS+0.05% azide at 20 μL/min.
IL-1 R is expressed in baculovirus-infected TN-5B1-4 insect cells (High Five) and purified using standard procedures. To determine an appropriate constant concentration of protein to use, a protein titration is first performed. A dilution series of the protein is typically performed to produce seven protein solutions having final concentrations of from 300 nM, 100 nM, 33 nM, 11 nM, 3.7 nM, 1.2 nM, and 0.41 nM in PBS+0.05% azide, and an eighth solution is used as a PBS-only baseline. The protein solutions are injected from lowest concentration to highest at 40 μL/min for 1 min. The SPR software method includes a 1 min wash before injection, the injection and then a 3 min wash after the injection.
These dilutions series are analyzed by BIAevaluation software version 3.0. Sensorgrams are plotted for protein binding to the immobilized peptide cell. The sensorgrams are modified by subtracting the sensorgrams for the appropriate protein dilutions over cell 1 (a blank cell). This subtraction step removes any RU changes that might occur due to nonspecific interactions between the protein and the chip itself or refractive changes in the buffer. Finally, the eight sensorgrams produced from the protein dilution series are zeroed at the average of their starting RUs. Then the sensorgram produced by injecting PBS only is subtracted to reveal the final sensorgrams used to determine relative binding.
To determine KdSPR for the protein, the protein concentration is plotted on the X-axis, while the fraction bound at the plateau of the injection is plotted on the Y-axis. The curve is then analyzed via nonlinear regression analysis (Kaleidagraph, Synergy Software). […] One wants to keep protein constant and non-saturated to be assured of not having an excess of protein in solution. For this protein, 30 nM was chosen. […]

In experiment [2] the target is T2, immobilized IL-2 (Homo sapiens, UniProt P60568).
T2 construct: made in house; host or cells: E. coli
Put plainly: Double ligand SPR on immobilized interleukin-2 (Examples 9-11). The class given is binding. Here is the method:
A CM5 sensor chip (Biacore-BR-1000-14) is docked in a Biacore 2000 SPR device and normalized using a standard Biacore protocol with 70% glycerol. The chip is next equilibrated in PBS for approximately 1 hr at a 20 μL/min flow rate. The dextran surface of the chip is activated through an NHS/EDC coupling. This coupling is done using an amine coupling kit (Biacore—BR-100-50) containing N-hydroxysuccinimide (NHS 11.5 mg/mL) and N-ethyl-N′-(3-dimethylaminopropyl) carbodiimide hydrochloride (EDC 75 mg/mL). First, the two reagents are mixed in a 1:1 ratio and then 35 μL of the mixture are injected at 5 μL/min. The chip is activated one flow cell at a time, and that flow cell is subsequently labeled with protein.
IL-2 is expressed in E. coli cells and purified using standard procedures. Protein is then concentrated to 100 μM and the buffer is exchanged to 100 mM MES pH 5.75 (Nap-5 column, Pierce). A sensorgram is then run over the activated flow cell at 2,L/min of PBS. The IL-2 solution is then injected at 2 μL/min for 10 min. After injection the change in RUs is measured by marking the RUs at t=0 and t=final and subtracting. This gives the total RU change, which is related to the total mass of protein successfully coupled to the CM5 surface. The total mass will later be used to determine stoichiometry of binding. This procedure is then repeated with another arbitrary protein to create a measure for nonspecific binding. The arbitrary protein is immobilized on an adjacent cell. […] The sensorgram is then altered to flow across all four cells on the CM5 chip at 5 μL/min PBS. A solution of 1 M ethanolamine hydrochloride-NaOH pH 8.5 (Amine coupling kit, Biacore-BR-100-50) is injected at 5 μL/min for 7 min. Proteins are immobilized at densities of 100-160 fmol/mm^2. The chip is equilibrated overnight in PBS+0.05% azide+2% DMSO at 20 μL/min.
In this experiment, variable concentrations of a compound are tested at a constant concentration of another compound. The compound held constant is 2c, for example (structure shown in Example 2). To determine appropriate constant concentrations for 2c, a compound titration is first performed. Dilution series of the compounds are typically performed to produce seven solutions having final compound concentrations of 30 mM, 10 mM, 3.3 mM, 1.1 mM, 0.37 mM, 0.12 mM, and 0.041 mM; an eighth solution is a DMSO-only baseline. The compounds are then diluted into PBS+0.05% azide to final concentrations of 300 μM, 100 μM, 33 μM, 11 μM, 3.7 μM, 1.2 μM, 0.41 μM. The compound solutions are injected from lowest concentration to highest at 40 μL/min for 1 min. The SPR software method includes a 1 min wash before injection, the injection and then a 3 min wash after the injection.
These dilution series are analyzed by BIAevaluation software version 3.0. Sensorgrams are plotted for compound binding to the IL-2 labeled cell of the chip. The sensorgrams are modified by subtracting the sensorgrams for the appropriate compound dilutions over cell 1 (a blank cell). This subtraction step removes any RU changes that might occur due to non-specific interactions between the compound and the chip itself or refractive changes in the buffer. Finally, the eight sensorgrams produced from the compound dilution series are zeroed at the average of their starting RUs. Then the sensorgram produced by injecting DMSO only is subtracted to reveal the final sensorgrams used to determine relative binding.
To determine KdSPR for the compound, the compound concentration is plotted on the X-axis, while the fraction bound at the plateau of the injection is plotted on the Y-axis. The curve is then analyzed via non-linear regression analysis (Kaleidagraph, Synergy Software). […] The concentration chosen is where the RUs remain constant at the top of the binding curve and thus the IL-2:2c ratio is 1. For 2c, this concentration is 100 μM.
A second compound is then run, this time in both the presence and absence of 2c. […]

Read-outs that look alike come from different tables or passages of the source.

T2 sequence (P60568 21-153): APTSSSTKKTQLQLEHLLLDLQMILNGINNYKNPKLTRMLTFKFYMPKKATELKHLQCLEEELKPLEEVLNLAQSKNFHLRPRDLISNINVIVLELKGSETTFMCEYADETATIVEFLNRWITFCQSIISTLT

By IC50 is commonly meant the concentration that inhibits the measured activity by half. With `NC(=O)Cc1cccc(NC(=O)c2cccc(NC(=O)c3cc4cccc(O)c4cc3O)c2)c1` [Compound 24], the IC50 in experiment [1] turned out to be 95 µM.

`COCCNC(=O)[C@@H]1CCCN1C(=O)c1cc2ccccc2s1` [Compound 1]: the Kd in experiment [2] (FIG. 7 sensorgrams, 0-500 μM of compound over immobilized IL-2, read-out: apparent Kd) was approximately 175 µM; in experiment [2] (dose-response plot of FIG. 9, absence of 2c, read-out: Kd for binding IL-2), 210 µM. The IC50 in experiment [2] (constant 50 μM of 2c, immobilized IL-2, FIG. 9, read-out: IC50 inhibiting the binding of 2c) stood at 185 µM.

As for `COCC(=O)NC1CSc2ccccc2C1=O` (stereo not shown) [Compound 20], in experiment [2] (immobilized IL-2, no other compound), the “Kd,SPR IL-2” value is listed as “Inactive”.

Consider `NC(=O)c1cccc(NC(=O)CCC(=O)Nc2ccc3[nH]ccc3c2)c1` [Compound 23], for which the IC50 in experiment [1] came out at 560 µM.

With `NC(=O)Cc1ccc(NC(=O)NCc2ccc(C3=CN=C(N)NC3)cc2)cc1` [Compound 25], the IC50 in experiment [1] was 240 µM.

As to `NC(=O)CC[C@H](NC(=O)[C@H](Cc1ccc(OP(=O)(O)O)cc1)NC(=O)[C@H](Cc1ccc2ccccc2c1)NC(=O)Cc1ccc(O)cc1)C(=O)N1CCN(C(=O)Cc2ccc(O)cc2)CC1` [Compound 21], the IC50 in experiment [1] was found to be 10.5 µM.

Regarding `N=C(N)N[C@@H](C(=O)NCC(=O)N1CCC(c2cc(-c3ccc(O)cc3Cl)[nH]n2)CC1)C1CCCCC1` [Compound 16], the Kd in experiment [2] (Example 11, immobilized interleukin-2, read-out: apparent Kd in SPR experiments) is 5 µM.

For the compound `NC(=O)c1cccc(NC(=O)CCC(=O)NCCc2c[nH]c3ccccc23)c1` [Compound 22], in experiment [1] (inhibition of binding of IL-1 R to the immobilized peptide CETPFTWEESNAYYWQPYALPL), the IC50SPR result is “Inactive”.

Source of the values: US20030186464A1, “Surface plasmon resonance methods” (priority 2002, published 2003).
